The values that follow come from the supplement of paper PMC10307832.

Assay in all cases: relative viability (nuclei count vs DMSO), 5 days (fraction); higher = more cells survive
Compound in the assay “Ibrutinib + Tozasertib”: C=CC(=O)N1CCC[C@@H](n2nc(-c3ccc(Oc4ccccc4)cc3)c3c(N)ncnc32)C1 [Ibrutinib] + Cc1cc(Nc2cc(N3CCN(C)CC3)nc(Sc3ccc(NC(=O)C4CC4)cc3)n2)n[nH]1 [Tozasertib] (partner 0.1 µM)
An outline of the steps: (§1)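 Values are medians from duplicate plates. Each reflects relative viability, defined as the nuclei count of treated wells over that of vehicle wells. Lung cancer cell lines in 1536-well plates were pin-tool dosed one day after seeding with one drug alone or with a fixed anchor-drug dose plus five library-drug doses (not always all listed) in √10 steps, then fixed, stained and imaged at 4× after 5 days.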

Compound in the assay “BMX-IN-1 + Palbociclib”: C=CC(=O)Nc1cc(-n2c(=O)ccc3cnc4ccc(-c5ccc(NS(C)(=O)=O)cc5)cc4c32)ccc1C [BMX-IN-1] + CC(=O)c1c(C)c2cnc(Nc3ccc(N4CCNCC4)cn3)nc2n(C2CCCC2)c1=O [Palbociclib] (partner 0.5 µM)
An outline of the steps:
as §1

Compound in the assay “PAC-1 + Luminespib”: C=CCc1cccc(/C=N/NC(=O)CN2CCN(Cc3ccccc3)CC2)c1O [PAC-1] + CCNC(=O)c1noc(-c2cc(C(C)C)c(O)cc2O)c1-c1ccc(CN2CCOCC2)cc1 [Luminespib] (partner 0.01 µM)
In outline: as §1

Compound in the assay “PAC-1 + OSI-027”: C=CCc1cccc(/C=N/NC(=O)CN2CCN(Cc3ccccc3)CC2)c1O [PAC-1] + COc1cccc2cc(-c3nc([C@H]4CC[C@H](C(=O)O)CC4)n4ncnc(N)c34)[nH]c12 [OSI-027] (partner 0.5 µM)
In outline: as §1

SK-MES-1: the relative viability was found to be 0.997 with Ibrutinib + Tozasertib (first compound 0.005 µM); 0.872 with Ibrutinib + Tozasertib (first compound 0.01581 µM); 0.965 with Ibrutinib + Tozasertib (first compound 0.05 µM); 1.03 with Ibrutinib + Tozasertib (first compound 0.1581 µM); 0.669 with Ibrutinib + Tozasertib (first compound 0.5 µM); 0.303 with BMX-IN-1 + Palbociclib (first compound 0.02 µM). In addition, the relative viability in the assay with BMX-IN-1 + Palbociclib (first compound 0.2 µM) is 0.333; with BMX-IN-1 + Palbociclib (first compound 0.6325 µM), 0.355; with BMX-IN-1 + Palbociclib (first compound 2 µM), 0.271; with PAC-1 + Luminespib (first compound 0.02 µM), 0.723; in the assay with PAC-1 + Luminespib (first compound 0.06325 µM) it was 0.805; with PAC-1 + Luminespib (first compound 0.2 µM), 0.726. The relative viability amounted to 0.56 with PAC-1 + Luminespib (first compound 2 µM); 0.651 with PAC-1 + OSI-027 (first compound 0.02 µM); 0.636 with PAC-1 + OSI-027 (first compound 0.06325 µM); 0.533 with PAC-1 + OSI-027 (first compound 0.2 µM); 0.645 with PAC-1 + OSI-027 (first compound 2 µM).
